Laboratory results published in PMC5526870, “Fragment optimization for GPCRs by molecular dynamics free energy calculations: Probing druggable subpockets of the A2A adenosine receptor binding site” (Scientific Reports, 2017).
Values joined by “and” are separate entries in the source; they are usually repeats but may differ in a detail not shown here. Identical values can stand only once. Like-named read-outs stand apart in the source and are kept apart here. Blank lines part the entries; values can stand above or below the molecule they belong to.

How the values were obtained:
human A2AAR [1] = biological target: T1, human A2AAR (Homo sapiens, UniProt P29274); settings: 95% confidence interval in brackets, cited from earlier work
T1 construct: expressed in transfected cells; host or cells: CHO cells

human A2AAR [2] = biological target: T1, human A2AAR; test: Radioligand binding assay at the A2AAR for adenine derivatives 1-23 (displacement of [3H]NECA, CHO cells)
Protocol: (§1) Radioligand binding assays for compounds 25–36 were performed as previously described[61] using membrane preparations from Chinese hamster ovary (CHO) or human embryonic kidney (HEK)293 cells stably expressing the human A1, A2A or A3AR. The following radioligands: antagonist [^3H]DPCPX (0.5 nM); antagonist [^3H]ZM241385 (1.0 nM); and agonist [^125I]AB-MECA (0.2 nM) were used for A1, A2A, and A3ARs, respectively. Binding parameters were calculated using Prism 6 software (GraphPAD, San Diego, CA, USA). IC50 values obtained from competition curves were converted to Ki values using the Cheng-Prusoff equation. Data were expressed as mean ± standard error. The radioligand binding assays for compounds 18, 20, 21, and 23 were performed as previously described. Each Ki value was determined from at least three independent experiments.
Supplementary Table S1. Binding data for compounds 1-23. […]
aKi value from Lambertucci et al.1 bKi value from Volpini et al.2 cDisplacement of specific [3H]NECA binding at human A2AAR expressed in CHO cells measured in this work.
Data is expressed as geometric means with 95% confidence limits (n=3-6). […]

human A2AAR [3] = biological target: T1, human A2AAR; test: Functional assay: inhibition of NECA-induced cAMP production (GloSensor) in CHO cells; assay type: cell-based; settings: against 1 µM NECA, CHO cells expressing human A2AAR
human A2AAR [4] = biological target: T1, human A2AAR; test: Radioligand binding assay, antagonist [3H]ZM241385 (1.0 nM), membranes of CHO or HEK293 cells, compounds 25-36; settings: for inhibition at 300 µM: read-out: % inhibition at 300 µM A2A (displacement of radioligand binding); for inhibition at 300 µM / Ki: [3H]ZM241385, mean ± standard error, n=3; for Ki: read-out: Ki A2A; for fold increase of affinity compared to compound 32: experimentally determined, A2AAR
Protocol: as §1
(§2) Supplementary Table S2. Experimental data for compounds 25-36. Radioligand binding
(§3) assays were performed using membranes of mammalian cells overexpressing one AR subtype.
(§4) aData are expressed as mean ± standard error resulting from three independent experiments.

human A1AR = biological target: T2, human A1AR (Homo sapiens, UniProt P30542); test: Radioligand binding assay, antagonist [3H]DPCPX (0.5 nM), membranes of CHO or HEK293 cells; settings: for inhibition at 300 µM: read-out: % inhibition at 300 µM A1
T2 construct: expressed in transfected cells; host or cells: CHO or HEK293 cells (membrane preparations)
T2 sequence (P30542 1-326): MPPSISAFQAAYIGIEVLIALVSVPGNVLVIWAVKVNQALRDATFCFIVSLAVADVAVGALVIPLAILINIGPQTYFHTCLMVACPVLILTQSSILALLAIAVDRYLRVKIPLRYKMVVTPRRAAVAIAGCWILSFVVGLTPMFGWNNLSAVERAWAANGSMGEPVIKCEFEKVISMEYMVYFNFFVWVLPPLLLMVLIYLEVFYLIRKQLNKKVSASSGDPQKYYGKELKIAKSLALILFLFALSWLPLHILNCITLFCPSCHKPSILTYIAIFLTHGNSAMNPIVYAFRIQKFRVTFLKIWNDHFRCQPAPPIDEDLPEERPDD
Protocol: Binding parameters were calculated using Prism 6 software (GraphPAD, San Diego, CA, USA). IC50 values obtained from competition curves were converted to Ki values using the Cheng-Prusoff equation. Data were expressed as mean ± standard error. […] Each Ki value was determined from at least three independent experiments.
Supplementary Table S2. […] Radioligand binding
as §3

human A3AR = biological target: T3, human A3AR (Homo sapiens, UniProt P0DMS8); test: Radioligand binding assay, agonist [125I]AB-MECA (0.2 nM), membranes of CHO or HEK293 cells; settings: for inhibition at 300 µM: read-out: % inhibition at 300 µM A3, 300 µM, mean ± standard error, n=3; for Ki: mean ± standard error, n=3, read-out: Ki A3
T3 construct: expressed in transfected cells; host or cells: CHO or HEK293 cells (membrane preparations)
T3 sequence (P0DMS8 1-318): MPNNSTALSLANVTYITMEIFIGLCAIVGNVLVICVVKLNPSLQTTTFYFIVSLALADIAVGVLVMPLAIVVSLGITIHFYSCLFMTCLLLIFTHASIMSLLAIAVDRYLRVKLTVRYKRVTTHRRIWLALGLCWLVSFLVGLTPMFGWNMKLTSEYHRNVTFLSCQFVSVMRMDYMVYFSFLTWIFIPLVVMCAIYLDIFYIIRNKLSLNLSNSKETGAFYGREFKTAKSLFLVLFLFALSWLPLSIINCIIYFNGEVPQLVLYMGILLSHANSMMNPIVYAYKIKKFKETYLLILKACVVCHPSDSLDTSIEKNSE
Protocol: as §1, §2, §3, §4

[5] = displacement of specific [3H]NECA binding at human A2AAR expressed in CHO cells, measured in this work
[6] = [3H]DPCPX, mean ± standard error, n=3
[7] = [3H]DPCPX, mean ± standard error, n=3, read-out: Ki A1

T1 sequence (P29274 whole entry): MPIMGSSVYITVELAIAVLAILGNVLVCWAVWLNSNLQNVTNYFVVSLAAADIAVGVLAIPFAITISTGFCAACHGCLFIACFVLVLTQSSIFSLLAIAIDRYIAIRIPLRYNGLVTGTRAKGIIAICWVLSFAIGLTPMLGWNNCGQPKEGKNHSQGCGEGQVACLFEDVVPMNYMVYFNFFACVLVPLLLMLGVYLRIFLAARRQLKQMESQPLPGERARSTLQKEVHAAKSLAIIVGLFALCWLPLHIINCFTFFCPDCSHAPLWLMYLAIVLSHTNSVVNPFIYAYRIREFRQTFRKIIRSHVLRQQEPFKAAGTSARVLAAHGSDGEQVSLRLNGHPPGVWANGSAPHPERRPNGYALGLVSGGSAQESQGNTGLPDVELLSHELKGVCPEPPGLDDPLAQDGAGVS

SMILES: Cn1cnc2ncnc(N)c21 [Compound 1]
Ki (human A2AAR [1]; ref Lambertucci et al. [22]): > 100 µM

experimental improvement in binding free energy, compound 3 versus compound 2 (human A2AAR [2]; C8-bromine addition): 2.4 kcal/mol
fold increase in affinity compared to compound 2 (human A2AAR [2]; C8-bromine versus unsubstituted compound 2): 58 fold
experimental improvement of binding affinity, compound 3 versus compound 4 (human A2AAR [2]; addition of N9-methyl group): 2.0 kcal/mol
SMILES: Cn1c(Br)nc2c(N)ncnc21 [Compound 3]

SMILES: CCn1c(Br)nc2c(N)ncnc21 [Compound 5]
inhibition of A2AAR mediated cAMP production (human A2AAR [3]): close to completely inhibit the agonist effect of 1 µM NECA
Ki (human A2AAR [1]; ref Lambertucci et al. [22]): 0.052 µM

SMILES: Nc1ncnc2c1nc(Br)n2CCO [Compound 6]
Ki (human A2AAR [1]; ref Lambertucci et al. [22]): 0.62 µM

SMILES: CCCn1c(Br)nc2c(N)ncnc21 [Compound 7]
Ki (human A2AAR [1]; ref Lambertucci et al. [22]): 0.3 µM

SMILES: CC(C)Cn1c(Br)nc2c(N)ncnc21 [Compound 8]
Ki (human A2AAR [1]; ref Lambertucci et al. [22]): 6 µM

SMILES: CCn1cnc2c(N)ncnc21 [Compound 9]
Ki (human A2AAR [1]; ref Lambertucci et al. [22]): 2.2 µM

SMILES: Nc1ncnc2c1ncn2CCO [Compound 10]
Ki (human A2AAR [1]; ref Lambertucci et al. [22]): 11 µM

SMILES: CC(C)Cn1cnc2c(N)ncnc21 [Compound 11]
Ki (human A2AAR [1]; ref Lambertucci et al. [22]): > 100 µM

SMILES: Nc1ncnc2c1ncn2CCCO [Compound 12]
Ki (human A2AAR [1]; ref Lambertucci et al. [22]): 3.9 µM

SMILES: CCCn1cnc2c(N)ncnc21 [Compound 13]
Ki (human A2AAR [1]; ref Lambertucci et al. [22]): 9.6 µM

SMILES: Nc1ncnc2c1nc(Br)n2C1CCCC1 [Compound 14]
Ki (human A2AAR [1]; ref Lambertucci et al. [22]): 1.9 µM

SMILES: Nc1ncnc2c1ncn2C1CCCC1 [Compound 15]
Ki (human A2AAR [1]; ref Lambertucci et al. [22]): 1.8 µM

SMILES: C=CCCn1cnc2c(N)ncnc21 [Compound 17]
Ki (human A2AAR [1]; ref Lambertucci et al. [22]): 8.5 µM

SMILES: CCn1c(C)nc2c(N)ncnc21 [Compound 18]
fold increase of binding affinity compared to compound 9 (human A2AAR [2]; C8-methyl substituent): 10 fold
Ki (human A2AAR [2]; [5]): 0.218 ± 0.061 µM

SMILES: CCn1c(O)nc2c(N)ncnc21 [Compound 20]
Ki (human A2AAR [2]; [5]): 1.14 ± 0.29 µM

SMILES: CCOc1nc2c(N)ncnc2n1CC [Compound 22]
inhibition of A2AAR mediated cAMP production (human A2AAR [3]): close to completely inhibit the agonist effect of 1 µM NECA
Ki (human A2AAR [1]; ref Volpini et al. [23]): 0.046 µM

SMILES: CCn1c(OC(C)C)nc2c(N)ncnc21 [Compound 23]
Ki (human A2AAR [2]; compound retested in a radioligand binding assay at the A2AAR, this work): 0.095 µM
fold loss of binding affinity relative to compound 21 (human A2AAR [2]; from published affinity of 23): > 1000 fold
inhibition of A2AAR mediated cAMP production (human A2AAR [3]): close to completely inhibit the agonist effect of 1 µM NECA
Ki (human A2AAR [1]; ref Volpini et al. [23]): > 100 µM

inhibition at 300 µM (human A2AAR [4]): 34%
inhibition at 300 µM (human A1AR; [6]): 27 ± 4%
inhibition at 300 µM (human A3AR): 39 ± 2%
SMILES: Nc1ncnc2ncnn12 [Compound 25, [1,2,4]triazolo[1,5-a][1,3,5]triazin-7-amine]

Ki (human A2AAR [4]): 78.5 µM
inhibition at 300 µM (human A1AR; [6]): 44 ± 4%
inhibition at 300 µM (human A3AR): 50 ± 4%
SMILES: Cc1nc2ncnc(N)n2n1 [Compound 26]

Ki (human A2AAR [4]): 20 µM
Ki (human A1AR): 97.3 ± 3.5 µM
Ki (human A3AR): 119 ± 42 µM
SMILES: CSc1nc2ncnc(N)n2n1 [Compound 27]

inhibition at 300 µM (human A2AAR [4]): 17%
inhibition at 300 µM (human A1AR; [6]): 22 ± 6%
Ki (human A3AR): 153 ± 31 µM
SMILES: Nc1cccn2ncnc12 [Compound 28, [1,2,4]triazolo[1,5-a]pyridin-8-amine]

inhibition at 300 µM (human A2AAR [4]): 31%
inhibition at 300 µM (human A1AR; [6]): 38 ± 6%
inhibition at 300 µM (human A3AR): 44 ± 4%
SMILES: Cc1nc2c(N)cccn2n1 [Compound 29]

inhibition at 300 µM (human A2AAR [4]): 49%
Ki (human A1AR): 97.2 ± 22.5 µM
Ki (human A3AR): 110 ± 17 µM
SMILES: CCc1nc2c(N)cccn2n1 [Compound 30]

Ki (human A2AAR [4]): 223 µM
Ki (human A1AR): 50.1 ± 22.6 µM
Ki (human A3AR): 102 ± 32 µM
SMILES: CC(C)c1nc2c(N)cccn2n1 [Compound 31]

Ki (human A2AAR [4]): 79.1 µM and 79 µM
Ki (human A1AR; [7]): 11.2 ± 2.4 µM
Ki (human A3AR): 0.81 ± 0.17 µM
SMILES: CC(=O)Nc1nc2ccccc2s1 [Compound 32, N-(benzo[d]thiazol-2-yl)acetamide]

Ki (human A2AAR [4]): 10.7 ± 2.3 µM
fold increase of affinity compared to compound 32 (human A2AAR [4]): 7 fold
Ki (human A1AR; [7]): 17 ± 1.2 µM
Ki (human A3AR): 2.3 ± 0.5 µM
SMILES: CC(=O)Nc1nc2c(C)cccc2s1 [Compound 33]

Ki (human A2AAR [4]): 11.6 ± 1.2 µM
fold increase of affinity compared to compound 32 (human A2AAR [4]): 7 fold
Ki (human A1AR; [7]): 8.4 ± 0.9 µM
Ki (human A3AR): 1.1 ± 0.2 µM
SMILES: CC(=O)Nc1nc2cc(C)ccc2s1 [Compound 34]

Ki (human A2AAR [4]): 48.6 ± 2.6 µM
fold increase of affinity compared to compound 32 (human A2AAR [4]): two-fold increase of affinity
Ki (human A1AR; [7]): 17.8 ± 1.7 µM
Ki (human A3AR): 2.9 ± 0.4 µM
SMILES: CC(=O)Nc1nc2ccc(C)cc2s1 [Compound 35]

Ki (human A2AAR [4]): 1.8 ± 0.05 µM
experimental increase of affinity compared to compound 32, as free energy (human A2AAR [4]; corresponding to the 44-fold increase): 2.3 kcal/mol
fold increase of affinity compared to compound 32 (human A2AAR [4]): 44 fold
Ki (human A1AR; [7]): 7.8 ± 0.5 µM
Ki (human A3AR): 1 ± 0.2 µM
SMILES: COc1cccc2sc(NC(C)=O)nc12 [Compound 36]
